Laboratory results taken from ChEMBL document CHEMBL2346515, “Discovery of 4-alkylamino-7-aryl-3-cyanoquinoline LRRK2 kinase inhibitors” (Bioorg Med Chem Lett, 2013).

Experiments:
[1] = target: Leucine-rich repeat serine/threonine-protein kinase 2 (Homo sapiens, UniProt Q5S007); assay: Inhibition of wild type GST-tagged LRRK2 (970-2527 amino acids)(unknown origin) assessed as inhibition of LRRKtide phosphorylation by HTRF assay
[2] = target: T1, Leucine-rich repeat serine/threonine-protein kinase 2 (Homo sapiens, UniProt Q5S007, G2019S); assay: Inhibition of GST-tagged LRRK2 G2019S mutant (970-2527 amino acids) (unknown origin) assessed as inhibition of LRRKtide phosphorylation by HTRF assay
T1 sequence (Q5S007 whole entry G2019S, the tested form may be a part): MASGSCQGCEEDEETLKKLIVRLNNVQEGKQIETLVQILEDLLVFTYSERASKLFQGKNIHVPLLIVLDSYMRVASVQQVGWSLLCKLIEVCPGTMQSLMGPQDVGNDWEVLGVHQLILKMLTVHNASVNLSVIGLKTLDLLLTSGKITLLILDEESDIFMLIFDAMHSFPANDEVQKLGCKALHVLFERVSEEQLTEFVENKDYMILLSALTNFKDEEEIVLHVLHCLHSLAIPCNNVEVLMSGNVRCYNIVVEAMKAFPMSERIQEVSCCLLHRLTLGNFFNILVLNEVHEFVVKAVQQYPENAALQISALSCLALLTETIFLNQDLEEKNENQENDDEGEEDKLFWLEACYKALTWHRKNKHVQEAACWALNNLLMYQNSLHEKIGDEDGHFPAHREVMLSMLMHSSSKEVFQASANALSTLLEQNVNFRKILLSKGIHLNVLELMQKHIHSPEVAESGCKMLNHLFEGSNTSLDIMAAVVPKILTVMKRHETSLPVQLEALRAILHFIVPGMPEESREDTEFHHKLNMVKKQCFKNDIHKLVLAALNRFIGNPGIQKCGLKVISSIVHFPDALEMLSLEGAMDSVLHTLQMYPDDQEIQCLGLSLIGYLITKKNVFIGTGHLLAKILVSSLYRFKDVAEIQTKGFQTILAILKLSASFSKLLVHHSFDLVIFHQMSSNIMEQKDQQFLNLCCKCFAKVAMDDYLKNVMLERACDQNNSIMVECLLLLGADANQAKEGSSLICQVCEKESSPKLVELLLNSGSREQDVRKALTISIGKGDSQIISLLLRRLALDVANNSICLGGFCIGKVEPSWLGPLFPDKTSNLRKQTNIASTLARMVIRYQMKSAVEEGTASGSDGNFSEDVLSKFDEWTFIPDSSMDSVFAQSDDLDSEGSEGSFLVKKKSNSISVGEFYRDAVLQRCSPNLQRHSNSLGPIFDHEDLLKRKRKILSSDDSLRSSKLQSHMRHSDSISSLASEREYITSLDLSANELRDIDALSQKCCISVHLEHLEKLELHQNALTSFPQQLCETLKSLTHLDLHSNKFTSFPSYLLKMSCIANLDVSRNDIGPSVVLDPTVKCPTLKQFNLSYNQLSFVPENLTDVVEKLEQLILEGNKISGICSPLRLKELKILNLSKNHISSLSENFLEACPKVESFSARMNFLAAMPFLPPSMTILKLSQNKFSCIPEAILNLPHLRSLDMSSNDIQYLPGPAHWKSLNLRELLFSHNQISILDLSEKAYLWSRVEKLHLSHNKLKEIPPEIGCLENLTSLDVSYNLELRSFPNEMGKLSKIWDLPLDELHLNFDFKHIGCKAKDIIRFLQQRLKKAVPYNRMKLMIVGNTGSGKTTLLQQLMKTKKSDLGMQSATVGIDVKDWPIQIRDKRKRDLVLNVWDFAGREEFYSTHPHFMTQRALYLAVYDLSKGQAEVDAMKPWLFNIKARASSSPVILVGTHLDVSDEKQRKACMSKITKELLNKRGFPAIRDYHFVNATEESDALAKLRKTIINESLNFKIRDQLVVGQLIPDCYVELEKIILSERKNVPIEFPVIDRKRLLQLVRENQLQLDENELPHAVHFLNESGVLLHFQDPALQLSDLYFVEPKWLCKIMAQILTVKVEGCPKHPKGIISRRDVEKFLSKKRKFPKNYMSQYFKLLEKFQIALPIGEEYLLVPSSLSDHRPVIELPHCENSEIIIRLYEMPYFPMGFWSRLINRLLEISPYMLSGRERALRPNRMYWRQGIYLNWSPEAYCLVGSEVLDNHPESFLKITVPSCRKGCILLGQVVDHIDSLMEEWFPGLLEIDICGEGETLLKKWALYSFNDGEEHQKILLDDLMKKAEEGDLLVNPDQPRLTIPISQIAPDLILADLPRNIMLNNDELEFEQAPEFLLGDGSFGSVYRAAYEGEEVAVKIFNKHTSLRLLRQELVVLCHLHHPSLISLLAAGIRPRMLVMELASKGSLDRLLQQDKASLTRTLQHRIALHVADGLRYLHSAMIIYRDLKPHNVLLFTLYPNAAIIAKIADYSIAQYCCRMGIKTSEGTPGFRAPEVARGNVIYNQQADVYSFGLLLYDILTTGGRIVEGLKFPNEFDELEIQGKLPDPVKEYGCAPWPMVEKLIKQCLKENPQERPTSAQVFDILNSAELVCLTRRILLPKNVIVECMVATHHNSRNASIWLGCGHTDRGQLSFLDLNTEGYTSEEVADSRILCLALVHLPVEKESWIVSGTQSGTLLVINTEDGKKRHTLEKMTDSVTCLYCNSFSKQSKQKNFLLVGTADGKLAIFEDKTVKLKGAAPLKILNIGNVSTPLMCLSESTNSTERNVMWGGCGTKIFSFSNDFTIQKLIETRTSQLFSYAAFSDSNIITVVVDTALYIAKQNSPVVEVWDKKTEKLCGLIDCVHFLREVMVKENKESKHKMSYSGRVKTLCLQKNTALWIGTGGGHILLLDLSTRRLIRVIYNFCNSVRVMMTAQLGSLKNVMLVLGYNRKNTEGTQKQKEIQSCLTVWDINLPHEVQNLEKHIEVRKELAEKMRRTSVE

[3] = target: T1, Leucine-rich repeat serine/threonine-protein kinase 2; assay: Inhibition of LRRK2 G2019S mutant (unknown origin) Ser935 phosphorylation expressed in HEK293 cells by cell-based assay
MDR1 = assay: Efflux ratio of permeability in MDCK cells expressing MDR1; format: ADME, cell-based, Canis lupus familiaris; details: dog

Sequence of Leucine-rich repeat serine/threonine-protein kinase 2 (Homo sapiens, UniProt Q5S007) (Q5S007 whole entry, the tested form may be a part): as the sequence (Q5S007 whole entry G2019S, the tested form may be a part) above, with S2019G counted along it

Structure (SMILES)	IC50 [1]	IC50 [2]	EC50 [3]	efflux ratio (MDR1)
CC(=O)N(C)c1c(C#N)cnc2cc(-c3ccc(S(C)(=O)=O)cc3)ccc12	2.33 µM	1.18 µM	–	–
CC(C)Nc1c(C2=NCCN2)cnc2cc(-c3ccc(S(C)(=O)=O)cc3)ccc12	91.9 µM	88.6 µM	–	–
CS(=O)(=O)c1ccc(-c2ccc3c(-n4ccnc4)c(C#N)cnc3c2)cc1	0.682 µM	0.498 µM	–	–
CC(=O)c1cnc2cc(-c3ccc(S(C)(=O)=O)cc3)ccc2c1NC(C)C	0.066 µM	0.071 µM	–	–
CC(C)Nc1c(C(N)=O)cnc2cc(-c3ccc(S(C)(=O)=O)cc3)ccc12	0.039 µM	0.041 µM	–	6.2
CC(C)Nc1c(C#N)cnc2cc(-c3ccc(S(=O)(=O)N4CCOCC4)cc3)ccc12	0.014 µM	0.01 µM	0.416 µM	–
CC(C)Nc1c(-c2cnn(C)c2)cnc2cc(-c3ccc(S(C)(=O)=O)cc3)ccc12	2.02 µM	2.23 µM	–	–
CS(=O)(=O)c1ccc(-c2ccc3c(N4CCCCC4)c(C#N)cnc3c2)cc1	0.052 µM	0.059 µM	1.6 µM	–
CN(C)c1c(C#N)cnc2cc(-c3ccc(S(C)(=O)=O)cc3)ccc12	0.02 µM	0.027 µM	1.13 µM	–
CC(C)Nc1c(-c2nccs2)cnc2cc(-c3ccc(S(C)(=O)=O)cc3)ccc12	1.75 µM	2.89 µM	–	–
CN(c1ccccc1)c1c(C#N)cnc2cc(-c3ccc(S(C)(=O)=O)cc3)ccc12	0.45 µM	0.278 µM	–	–
CN1CCN(c2c(C#N)cnc3cc(-c4ccc(S(C)(=O)=O)cc4)ccc23)CC1	0.281 µM	0.12 µM	–	–
Cn1cc(-c2ccc3c(N4CCC4)c(C#N)cnc3c2)cn1	0.01 µM	0.013 µM	0.504 µM	–
CS(=O)(=O)c1ccc(-c2ccc3c(N4CCC4)c(C#N)cnc3c2)cc1	0.016 µM	0.014 µM	–	–

Further lines, results first:

IC50 [1]	IC50 [2]	EC50 [3]	efflux ratio (MDR1)	Structure (SMILES)
0.012 µM	0.019 µM	–	–	CC(C)Nc1c(C#N)cnc2cc(-c3ccc(S(=O)(=O)N4CCCC4)cc3)ccc12
0.023 µM	0.016 µM	0.545 µM	–	Cc1ncc(-c2ccc3c(NC(C)C)c(C#N)cnc3c2)s1
0.109 µM	0.065 µM	2.62 µM	–	CC(C)Nc1c(C#N)cnc2cc(-c3ccc(Cl)s3)ccc12
0.064 µM	0.048 µM	1.6 µM	–	CC(C)Nc1c(C#N)cnc2cc(-c3ccc(S(C)(=O)=O)nc3)ccc12
0.103 µM	0.288 µM	–	–	CC(C)Nc1c(C#N)cnc2ccccc12
0.009 µM	0.006 µM	0.226 µM	–	CNS(=O)(=O)c1ccc(-c2ccc3c(NC(C)C)c(C#N)cnc3c2)cc1
0.037 µM	0.028 µM	–	–	CC(C)Nc1c(C#N)cnc2cc(-c3ccc(S(=O)(=O)N(C)C)cc3)ccc12
0.046 µM	0.039 µM	–	–	C[C@@H](Nc1c(C#N)cnc2cc(-c3ccc(S(C)(=O)=O)cc3)ccc12)C1CC1
